Test results taken from patent US3957764A, “6-Aminopenicillanic acid derivatives” (priority 1969, dated 1976).
Values after ≈ are worked out from the molar mass of the structure shown. Where two headings read alike, the source gives them in different places.

Experiments:
[1] = system: Salmonella hirschfeldii; assay: Antibacterial spectrum (Table A), 50% inhibition; format: cell-based
Source text: (§1) This effect is quite unexpected, since of the hitherto known derivatives of 6-aminopenicillanic acid only those being substituted with an acyl group at the 6-amino group have shown an antibacterial effect. The effect on penicillin-sensitive, gram-positive bacteria is less than that of benzylpenicillin and of α-aminobenzylpenicillin, whereas the effect on gram-negative bacilli, e.g. coli and salmonella species, is on a many times higher level than that of e.g. benzylpenicillin and α-aminobenzylpenicillin. […] IC50 means the concentration required for 50% inhibition.

[2] = system: Salmonella chlerasuis; assay: Antibacterial spectrum (Table A), 50% inhibition; format: cell-based
Source text: as §1

[3] = system: Alcaligenes faecalis; assay: Antibacterial spectrum (Table A), 50% inhibition; format: cell-based
Source text: as §1

[4] = system: Pseudomonas aeruginosa; assay: Antibacterial spectrum (Table A), 50% inhibition; format: cell-based
Source text: as §1

[5] = system: Bacillus megatherium KD; assay: Antibacterial spectrum (Table A), 50% inhibition; format: cell-based
Source text: as §1

[6] = system: Corynebacterium xerosis FF; assay: Antibacterial spectrum (Table A), 50% inhibition; format: cell-based
Source text: as §1

[7] = system: Proteus, average of 8 strains; assay: Antibacterial spectrum (Table A), 50% inhibition; format: cell-based
Source text: as §1

[8] = system: Streptococcus faecalis E13; assay: Antibacterial spectrum (Table A), 50% inhibition; format: cell-based; conditions: Enterococcus faecalis
Source text: as §1

[9] = system: Escherichia coli, average of 36 strains; assay: Antibacterial spectrum (Table A), 50% inhibition; format: cell-based
Source text: as §1

[10] = system: Staph. aureus, penicillin sensitive; assay: Antibacterial spectrum (Table A), 50% inhibition; format: cell-based; conditions: Staphylococcus aureus
Source text: as §1

[11] = system: Salmonella enteritidis; assay: Antibacterial spectrum (Table A), 50% inhibition; format: cell-based; conditions: Salmonella enterica
Source text: as §1

[12] = system: Diplococcus pneumoniae EA; assay: Antibacterial spectrum (Table A), 50% inhibition; format: cell-based; conditions: Streptococcus pneumoniae
Source text: as §1

[13] = system: Salmonella typhimurium; assay: Antibacterial spectrum (Table A), 50% inhibition; format: cell-based; conditions: Salmonella enterica
Source text: as §1

[14] = system: Vibrio comma; assay: Antibacterial spectrum (Table A), 50% inhibition; format: cell-based; conditions: Vibrio cholerae
Source text: as §1

[15] = system: Bacillus subtilis KA2; assay: Antibacterial spectrum (Table A), 50% inhibition; format: cell-based
Source text: as §1

[16] = system: Klebsiella pneumoniae, average of 12 strains; assay: Antibacterial spectrum (Table A), 50% inhibition; format: cell-based
Source text: as §1

[17] = system: Salmonella typhosa; assay: Antibacterial spectrum (Table A), 50% inhibition; format: cell-based; conditions: Salmonella enterica
Source text: as §1

[18] = system: Erysipelothrix insidiosa FU; assay: Antibacterial spectrum (Table A), 50% inhibition; format: cell-based; conditions: Erysipelothrix rhusiopathiae
Source text: as §1

[19] = system: Salmonella abortivoequina; assay: Antibacterial spectrum (Table A), 50% inhibition; format: cell-based
Source text: as §1

[20] = system: Staph. aureus, penicillinase producing; assay: Antibacterial spectrum (Table A), 50% inhibition; format: cell-based; conditions: Staphylococcus aureus
Source text: as §1

[21] = system: Salmonella schottmuelleri; assay: Antibacterial spectrum (Table A), 50% inhibition; format: cell-based
Source text: as §1

[22] = system: Streptococcus pyogenes; assay: Antibacterial spectrum (Table A), 50% inhibition; format: cell-based
Source text: as §1

[23] = system: Listeria Monocytogenes FT; assay: Antibacterial spectrum (Table A), 50% inhibition; format: cell-based
Source text: as §1

[24] = system: Shigella flexneri; assay: Antibacterial spectrum (Table A), 50% inhibition; format: cell-based
Source text: as §1

[25] = system: Shigella dysenteriae; assay: Antibacterial spectrum (Table A), 50% inhibition; format: cell-based
Source text: as §1

[26] = system: Salmonella paratyphi A; assay: Antibacterial spectrum (Table A), 50% inhibition; format: cell-based; conditions: Salmonella enterica
Source text: as §1

[27] = system: Escherichia Coli HA2; assay: In vivo experiment: survival of mice infected with Escherichia Coli HA2 (Table C); conditions: 10 mice
Description: The great difference between the spectrum of the hereinbefore mentioned FL 1060 and those of G-penicillin and ampicillin indicates a difference in the mode of action. This is also supported by in vivo experiments, in which mice (weight 27 to 30 g) were infected with 0.5 ml of a 24 hour old NIH bouillon culture of Escherichia Coli HA2 1000 times diluted in gastric mucin (5%) (Orthana). After half an hour and again after 61/2 hours a single dose was given subcutaneously in 0.5 ml. of a 0.9 per cent sodium chloride solution. After 24 hours the numbers of surviving mice were registered.
All surviving mice were still alive after 4 days, when observation of them was terminated.

[28] = system: Escherichia coli HA2 Leo strain; assay: Antibacterial activity (Tables A and B), 50% inhibition; format: cell-based; conditions: HA2LEOSTRAIN, Table A
Source text: as §1
In Table B below the activity of a number of the compounds of the invention against the Escherichia coli HA2 Leo strain of Table A is shown:
The compounds of Table B were obtained by enzymatic hydrolysis of the corresponding esters described in the Examples mentioned by treatment with a 20 per cent mouse serum at 37°C in 90 minutes.

[29] = Solubility in water; format: physicochemical
[30] = Salmonella chlerasuis, read-out: IC50
[31] = Proteus, average of 8 strains, read-out: IC50
[32] = Streptococcus faecalis E13, read-out: IC50
[33] = Salmonella enteritidis, read-out: IC50
[34] = Diplococcus pneumoniae EA, read-out: IC50
[35] = Salmonella typhimurium, read-out: IC50
[36] = average of 12 strains, read-out: IC50
[37] = Salmonella abortivoequina, read-out: IC50
[38] = Listeria Monocytogenes FT, read-out: IC50

| Compound | IC50 [1] [µg/mL] | IC50 [2, 30] [µg/mL] | IC50 [3] [µg/mL] | IC50 ([4]; read-out: IC50) [µg/mL] | IC50 [7, 31] [µg/mL] | IC50 [8, 32] [µg/mL] | IC50 [9] [µg/mL] | IC50 [10] [µg/mL] | IC50 [11, 33] [µg/mL] | IC50 [12, 34] [µg/mL] | IC50 [13, 35] [µg/mL] | IC50 [14] [µg/mL] | IC50 [17] [µg/mL] | IC50 [18] [µg/mL] | IC50 [20] [µg/mL] | IC50 [21] [µg/mL] | IC50 [24] [µg/mL] | IC50 [25] [µg/mL] | IC50 [26] [µg/mL] | IC50 [28] [µg/mL] | other results |
| --- | --- | --- | --- | --- | --- | --- | --- | --- | --- | --- | --- | --- | --- | --- | --- | --- | --- | --- | --- | --- | --- |
| CC1(C)S[C@@H]2[C@H](/N=C/N3CCCCCC3)C(=O)N2[C@H]1C(=O)O [FL 1060, 6-[(hexahydro-1H-azepin-1-yl)-methyleneamino]-penicillanic acid, hydrochloric, dihydrate] | 0.016 | 0.16 | 0.63 | > 100 | 0.23 | > 100 | 0.089 | 5 | 0.16 | 3.2 | 0.063 | 0.4 | 0.079 | 20 | > 100 | 0.063 | 0.05 | 0.16 | 0.13 | 0.016 | IC50 ([5]; Bacillus megatherium KD, read-out: IC50): 0.5 µg/mL; IC50 ([6]; Corynebacterium xerosis FF, read-out: IC50): 1.6 µg/mL; IC50 ([15]; read-out: IC50): 5 µg/mL; IC50 [16, 36]: 0.65 µg/mL; IC50 [19, 37]: 0.04 µg/mL; IC50 ([22]; read-out: IC50): 0.5 µg/mL; IC50 [23, 38]: 50 µg/mL; per cent surviving ([27]; single dose 7.5 μg s.c., given twice, 24 hours): 0 per cent; per cent surviving ([27]; single dose 15 μg s.c., given twice, 24 hours): 0 per cent; per cent surviving ([27]; single dose 30 μg s.c., after half an hour and again after 6 1/2 hours, 24 hours (survivors alive after 4 days)): 50 per cent |
| CC1(C)S[C@@H]2[C@H](N=CN3CCCCCC3)C(=O)N2[C@H]1C(=O)O [Example 6, 6-[(Hexahydro-1H-azepin-1-yl)-methyleneamino]-penicillanic acid] | – | – | – | – | – | – | – | – | – | – | – | – | – | – | – | – | – | – | – | – | solubility [29]: soluble in water |
| CC1(C)S[C@@H]2[C@H](NC(=O)Cc3ccccc3)C(=O)N2[C@H]1C(=O)O [G-Pen., benzylpenicillin] | 0.13 (≈ 0.389 µM) | – | 1.6 (≈ 4.78 µM) | – | – | – | 32 (≈ 95.7 µM) | 0.016 (≈ 0.0478 µM) | – | – | – | 0.79 (≈ 2.36 µM) | 2 (≈ 5.98 µM) | 0.025 (≈ 0.0748 µM) | 100 (≈ 299 µM) | 3.2 (≈ 9.57 µM) | 10 (≈ 29.9 µM) | 5 (≈ 15 µM) | 3.2 (≈ 9.57 µM) | 32 (≈ 95.7 µM) | IC50 ([2]; Salmonella): 1.6 µg/mL (≈ 4.78 µM); IC50 [4]: > 100 µg/mL; IC50 ([5]; Bacillus): 0.016 µg/mL (≈ 0.0478 µM); IC50 ([6]; Corynebacterium xerosis): 0.013 µg/mL (≈ 0.0389 µM); IC50 [7]: 5.4 µg/mL (≈ 16.1 µM); IC50 ([8]; E13): 3.2 µg/mL (≈ 9.57 µM); IC50 ([11]; ENTERITIDIS): 2.5 µg/mL (≈ 7.48 µM); IC50 [12]: 0.01 µg/mL (≈ 0.0299 µM); IC50 ([13]; TYPHIMURIUM): 2.5 µg/mL (≈ 7.48 µM); IC50 [15]: 0.01 µg/mL (≈ 0.0299 µM); IC50 [16]: 29 µg/mL (≈ 86.7 µM); IC50 ([19]; Salmonella): 2.5 µg/mL (≈ 7.48 µM); IC50 [22]: 0.008 µg/mL (≈ 0.0239 µM); IC50 ([23]; Listeria monocytogenes): 0.1 µg/mL (≈ 0.299 µM) |
| CC1(C)S[C@@H]2[C@H](NC(=O)[C@H](N)c3ccccc3)C(=O)N2[C@H]1C(=O)O [Ampicillin, α-aminobenzylpenicillin] | 0.079 (≈ 0.226 µM) | 0.32 (≈ 0.916 µM) | 0.5 (≈ 1.43 µM) | > 100 | 1.3 (≈ 3.72 µM) | 0.79 (≈ 2.26 µM) | 2.2 (≈ 6.3 µM) | 0.025 (≈ 0.0715 µM) | 0.4 (≈ 1.14 µM) | 0.01 (≈ 0.0286 µM) | 0.5 (≈ 1.43 µM) | 0.4 (≈ 1.14 µM) | 0.32 (≈ 0.916 µM) | 0.04 (≈ 0.114 µM) | 130 (≈ 372 µM) | 0.63 (≈ 1.8 µM) | 0.79 (≈ 2.26 µM) | 0.63 (≈ 1.8 µM) | 0.4 (≈ 1.14 µM) | 2 (≈ 5.72 µM) | IC50 ([15]; read-out: IC50): 0.025 µg/mL (≈ 0.0715 µM); IC50 [16, 36]: 26 µg/mL (≈ 74.4 µM); IC50 [19, 37]: 0.25 µg/mL (≈ 0.715 µM); IC50 ([22]; read-out: IC50): 0.013 µg/mL (≈ 0.0372 µM); IC50 [23, 38]: 0.1 µg/mL (≈ 0.286 µM); per cent surviving ([27]; single dose 75 μg s.c., given twice, 24 hours): 0 per cent; per cent surviving ([27]; single dose 150 μg s.c., given twice, 24 hours): 0 per cent; per cent surviving ([27]; single dose 300 μg s.c., given twice, 24 hours (survivors alive after 4 days)): 70 per cent |
